Here are results for one compound from patent US11020405B2, “Method for prevention or treatment of diabetic complications” (KANGWON NATIONAL UNIVERSITY UNIVERSITY-INDUSTRY COOPERATION …, priority 2017, dated 2021).

In assay [1] the test system is TGase. Put plainly: Analysis of TGase activity of cells (5-(biotinamido)pentylamine incorporation). The assay is classed as cell-based, human. The note with it: HRECs. How it is done:
(§1) Purchased from Applied Cell Biology Research Institute (Cell Systems, Kirkland, Wash.), human retinal endothelial cells (HRECs) were cultured in an M19 medium, containing 20% FBS, 3 ng/mL bFGF, 5 U/mL heparin, 100 U/mL penicillin and […], in a 2% gelatin-coated plate.
(§2) Before the following Test Examples 2 to 7, the HRECs were cultured for 6 hr in a medium containing 1% FBS and an antibiotic agent, thus preparing HRECs of Test Example 1.
With reference to FIG. 4A, the HRECs of Test Example 1 were treated with 0 to 20 μM midazolam, cultured for 2 hr, treated with 10 ng/mL VEGF, incubated for 2 hr, treated with 1 mM 5-(biotinamido)pentylamine, incubated for 1 hr, fixed with 3.7% formaldehyde, treated with 0.2% triton X-100, treated with a blocking solution containing 138 mM NaCl, 0.1% Tween 20 and 2% BSA dissolved in a 20 mM Tris (pH 7.6) buffer, incubated for 30 min, incubated for 1 hr with FITC-conjugated streptavidin (1:200, v/v), and then measured using confocal microscopy to thus determine the fluorescence intensity of single cells.
With reference to FIG. 4B, the HRECs of Test Example 1 were subjected to the respective treatments below and cultured for 30 min. Here, treatment with 10 ng/mL VEGF was performed for 2 hr. […]

The next assay has as its system lungs of diabetic mice. Put plainly: Hyperglycemia-induced pulmonary vascular leakage in diabetic mice (FITC-dextran). The assay is classed as in vivo, C57BL/6 mice. The note with it: 10 mg/kg midazolam intraperitoneal daily for 2 days (FIG. 21). The protocol: FIGS. 21A and 21B show the preventive effects of midazolam against hyperglycemia-induced pulmonary vascular leakage in diabetic mice. Six-week-old male C57BL/6 mice were administered with streptozotocin (150 mg/kg body weight) to give diabetic mouse models. Two weeks after streptozotocin injection, diabetic mice were administered 10 mg/kg midazolam by intraperitoneal injection daily for 2 days, and vascular leakage was investigated. The body weight of mice were measure in normal (19.9±0.3 g), diabetic (17.7±0.3 g), and midazolam supplemented diabetic mice (17.6±0.3 g). Blood glucose levels were also monitored in normal (123.5±6.5 mg/dL), diabetic (505.0±89.0 mg/dL), and midazolam supplemented diabetic mice (500.3±63.3 mg/dL). The mice were anesthetized with 3% isoflurane, and 1.25 mg of FITC-dextran was injected into the right ventricle of each mouse and allowed to circulate for 5 min. The lungs were dissected, fixed, and embedded in OCT compound. Cryosections of lungs were stained with isolectin B4 and DAPI. Representative images of vascular leakage in lungs are shown in additional FIG. 21A. Scale bars, 100 μm. The results of vascular leakage quantitatively analyzed by measuring the fluorescence intensity of FITC-dextran in the lungs are shown in additional FIG. 21B (n=4 for normal and diabetic, n=6 for diabetic+Midazolam).

For assay [2], the system named is human retinal endothelial cells (HRECs). Put plainly: Analysis of intracellular Ca^2+ (Fluo4-AM, confocal microscopy). The class given is cell-based. The protocol: as §1, §2
With reference to FIG. 2A, the HRECs of Test Example 1 were subjected to the respective treatments below, stained with 2 μM Fluo4-AM at 37° C. for 30 min and then measured at time intervals of 10 sec using confocal microscopy (FV-300, Olympus, Tokyo, Japan).
With reference to FIG. 2B, the HRECs of Test Example 1 were subjected to the respective treatments below, cultured for 30 min, stained with 2 μM Fluo4-AM at 37° C. for 30 min and then measured at time intervals of 10 sec using confocal microscopy.

Assay [3] concerns TGase. The assay is described as follows: Identification of receptor of midazolam through TGase activity analysis. The class given is cell-based, human. The note with it: HRECs. How it is done: With reference to FIG. 11A, the HRECs of Test Example 1 were subjected to the respective treatments below, cultured for 2 hr, treated with 1 mM 5-(biotinamido)pentylamine, incubated for 1 hr, fixed with 3.7% formaldehyde, treated with 0.2% triton X-100, treated with a blocking solution containing 138 mM NaCl, 0.1% Tween 20 and 2% BSA dissolved in a 20 mM Tris (pH 7.6) buffer, incubated for 30 min, incubated with FITC-conjugated streptavidin (1:200, v/v) for 1 hr, and then measured using confocal microscopy to thus determine the fluorescence intensity of single cells.
As will be described below, flumazenil was used as a GABAA receptor antagonist and PK11195 was used as a TSOP receptor antagonist.
With reference to FIG. 11B, the HRECs of Test Example 1 were treated with 0 μM, 0.01 μM, 0.1 μM, 1 μM, 10 μM, 20 μM, and 50 μM flumazenil and 0 μM, 0.01 μM, 0.1 μM, 1 μM, 3 μM, 10 μM, and 30 μM PK11195, cultured for 1 hr, treated with 20 μM midazolam, cultured for 30 min, treated with 10 ng/ml VEGF, incubated for 10 min, treated with 1 mM 5-(biotinamido)pentylamine, incubated for 1 hr, fixed with 3.7% formaldehyde, treated with 0.2% triton X-100, treated with a blocking solution containing 138 mM NaCl, 0.1% Tween 20 and 2% BSA dissolved in a 20 mM Tris (pH 7.6) buffer, incubated for 30 min, incubated with FITC-conjugated streptavidin (1:200, v/v) for 1 hr, and then measured using confocal microscopy to thus determine the fluorescence intensity of single cells.

Molecules are shown by their SMILES.

As to `Cc1ncc2n1-c1ccc(Cl)cc1C(c1ccccc1F)=NC2` [midazolam], in the assay with TGase [1] (0 to 20 μM midazolam 2 hr, then 10 ng/mL VEGF 2 hr (FIG. 4A)), the “TGase activity, concentration dependence” value is “TGase activity was decreased with an increase in the concentration of midazolam”. In addition, the “TGase activity (VEGF-induced) compared to control” value was “substantially the same effect of inhibiting TGase activity as the TGase inhibitors cystamine and MDC” in the assay with TGase [1] (10 ng/mL VEGF 2 hr with 20 μM midazolam, 5 μM BAPTA-AM, 1 mM NAC, 0.5 μM Trolox, 50 μM cystamine or 20 μM MDC (FIG. 4B)); “no significant TGase activity increase was observed” with TGase [3] (20 μM midazolam 10 min then 10 ng/ml VEGF, no washing (FIG. 11A)). Further, in the assay with lungs of diabetic mice, the “pulmonary vascular leakage (FITC-dextran extravasation)” value is reported as “blocked by midazolam administration”. Moreover, the “changes in intracellular Ca^2+ (VEGF-induced)” value in assay [2] (10 ng/ml VEGF and 20 μM midazolam together (FIG. 2A)) is recorded as “no significant changes in intracellular Ca^2+”. The “changes in intracellular Ca^2+ (VEGF-induced, after washing)” value in assay [2] (20 μM midazolam 30 min, washing with serum-free medium, then 10 ng/ml VEGF (FIG. 2A)) is on record as “intracellular Ca^2+ elevation was caused”. The “changes in intracellular Ca^2+” value in assay [2] (20 μM midazolam alone (FIG. 2A)) is recorded as “no significant changes in intracellular Ca^2+”. Moreover, the “TGase activity (VEGF-induced, after washing)” value in the assay with TGase [3] (20 μM midazolam 30 min, washing with serum-free medium, then 10 ng/ml VEGF (FIG. 11A)) is “TGase activity was increased”.
